According to patent US12458646B2, “Therapeutic or preventing agent for multiple sclerosis including indole compound” (JAPAN TOBACCO INC., priority 2018, dated 2025):

Assays:
[1] = target: T1, inducible T cell kinase (ITK) (Homo sapiens, UniProt Q08881); settings: as described in patent document 1 (WO 2011/065402); cited from earlier work
T1 sequence (Q08881 1-620): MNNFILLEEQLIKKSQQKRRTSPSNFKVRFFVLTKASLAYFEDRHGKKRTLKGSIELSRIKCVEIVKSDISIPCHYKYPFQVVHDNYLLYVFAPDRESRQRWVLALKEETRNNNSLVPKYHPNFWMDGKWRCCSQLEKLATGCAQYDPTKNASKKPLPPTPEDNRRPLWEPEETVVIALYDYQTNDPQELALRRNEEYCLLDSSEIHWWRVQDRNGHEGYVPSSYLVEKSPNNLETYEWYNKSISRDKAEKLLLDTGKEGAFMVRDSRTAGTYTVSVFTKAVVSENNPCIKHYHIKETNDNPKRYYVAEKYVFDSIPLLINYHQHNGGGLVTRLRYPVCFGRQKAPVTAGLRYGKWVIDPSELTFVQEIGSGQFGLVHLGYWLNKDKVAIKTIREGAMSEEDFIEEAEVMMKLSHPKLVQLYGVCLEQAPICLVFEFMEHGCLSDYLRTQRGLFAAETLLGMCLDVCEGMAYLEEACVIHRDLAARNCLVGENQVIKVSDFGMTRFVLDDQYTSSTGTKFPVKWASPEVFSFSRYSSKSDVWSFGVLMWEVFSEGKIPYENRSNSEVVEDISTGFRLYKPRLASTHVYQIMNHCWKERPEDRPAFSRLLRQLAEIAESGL

[2] = test system: mouse experimental autoimmune encephalomyelitis (EAE) model; assay: disease animal model of MS (mouse experimental autoimmune encephalomyelitis (EAE) model, clinical score); assay type: in vivo; settings: experiment using a disease animal model of MS
Description: Using a mouse EAE model, the suppressive effect of Compound A on an increase in clinical score was evaluated. The evaluation was performed by reference to non-patent document 3. As the experiment animal, 8-week-old female C57BL/6J mouse (CHARLES RIVER LABORATORIES JAPAN, INC.) was used. Monohydrochloride of Compound A was dissolved in 0.5% (w/v) methylcellulose (MC) to prepare 1 mg/mL, 3 mg/mL and 6 mg/mL Compound A solutions. FTY-720 hydrochloride (Cayman Chemical) was dissolved in 0.5% (w/v) MC to prepare a 0.01 mg/mL FTY-720 solution. […]
As clinical scores (score 0; normal, score 1; limp tail, score 2; hind limb weakness, score 3; partial hind limb paralysis, score 4; complete hind limb paralysis, score 5; moribund state, dead), the condition was observed over time and scored for each individual for 18 days from day 1.
Using a mouse Adoptive transfer EAE model, the suppressive effect of Compound A on an increase in clinical score was evaluated. […]
As clinical scores (score 0; normal, score 1; limp tail, score 2; hind limb weakness, score 3; partial hind limb paralysis, score 4; complete hind limb paralysis, score 5; moribund state, dead), the condition was observed over time and scored for each individual for 20 days from day 1.

C[C@@H](C(=O)N(C)c1ccc2cc(-c3n[nH]c4c3CCC(C)(C)C4)[nH]c2c1)N1CCOCC1 [Compound A, N-[2-(6,6-dimethyl-4,5,6,7-tetrahydro-1H-indazol-3-yl)-1H-indol-6-yl]-N-methyl-(2S)-2-(morpholin-4-yl)propanamide]
ITK inhibitory activity [1]: has an ITK inhibitory activity
severity of the disease [2]: significantly reduce severity of the disease
